From patent publication US20240043450A1, “NEW COMPOUND” (JANSSEN PHARMACEUTICA NV, priority 2020, published 2024)

Legend:
NLRP3 = target: T1, NLRP3 (Homo sapiens, UniProt Q96P20); assay: PBMC assay: IL-1β levels in supernatant of LPS-stimulated human PBMCs (MSD); type: cell-based; conditions: 30 min compound pre-incubation, 100 ng/ml LPS for 6 hrs, IL-1β in supernatant, read-out: IL-1B IC50
T1 construct: human peripheral blood mononuclear cells (PBMCs) were isolated from blood; endogenous in cells; host or cells: primary human PBMCs from healthy donors
T1 sequence (Q96P20 whole entry): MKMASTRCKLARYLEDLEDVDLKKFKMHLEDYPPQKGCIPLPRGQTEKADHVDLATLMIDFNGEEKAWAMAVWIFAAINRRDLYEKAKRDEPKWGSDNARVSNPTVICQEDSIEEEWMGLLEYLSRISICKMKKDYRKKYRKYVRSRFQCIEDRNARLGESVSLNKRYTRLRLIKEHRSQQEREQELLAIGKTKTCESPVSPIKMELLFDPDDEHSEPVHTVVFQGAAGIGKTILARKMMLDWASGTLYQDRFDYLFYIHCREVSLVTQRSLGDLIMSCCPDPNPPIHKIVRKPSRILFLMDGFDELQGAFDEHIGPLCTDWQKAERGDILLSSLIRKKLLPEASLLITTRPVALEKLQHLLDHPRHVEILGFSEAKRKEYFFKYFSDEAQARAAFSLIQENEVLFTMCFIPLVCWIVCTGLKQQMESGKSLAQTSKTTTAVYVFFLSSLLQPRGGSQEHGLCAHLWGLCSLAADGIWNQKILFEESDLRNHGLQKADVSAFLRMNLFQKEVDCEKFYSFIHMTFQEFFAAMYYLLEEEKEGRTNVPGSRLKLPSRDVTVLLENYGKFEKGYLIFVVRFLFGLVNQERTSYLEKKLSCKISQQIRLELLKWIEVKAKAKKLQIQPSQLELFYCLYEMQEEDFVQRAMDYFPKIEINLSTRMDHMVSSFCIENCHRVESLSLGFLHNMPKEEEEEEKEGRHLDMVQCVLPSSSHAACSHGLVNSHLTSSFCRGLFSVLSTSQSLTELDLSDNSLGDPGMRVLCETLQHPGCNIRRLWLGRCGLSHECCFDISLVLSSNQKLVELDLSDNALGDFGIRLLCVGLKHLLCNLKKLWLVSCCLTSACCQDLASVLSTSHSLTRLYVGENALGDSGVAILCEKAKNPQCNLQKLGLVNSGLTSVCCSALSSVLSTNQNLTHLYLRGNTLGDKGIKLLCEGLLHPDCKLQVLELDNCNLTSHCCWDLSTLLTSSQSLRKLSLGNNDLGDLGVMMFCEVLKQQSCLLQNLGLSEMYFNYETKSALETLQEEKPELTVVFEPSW
Method: The activity of a compound according to the present invention can be assessed by in vitro methods.
Peripheral venous blood was collected from healthy individuals and human peripheral blood mononuclear cells (PBMCs) were isolated from blood by Ficoll-Histopaque (Sigma-Aldrich, A0561) density gradient centrifugation. After isolation, PBMCs were stored in liquid nitrogen for later use. Upon thawing, PBMC cell viability was determined in growth medium (RPMI media supplemented with 10% fetal bovine serum, 1% Pen-Strep and 1% L-glutamine). […] PBMCs were added at a density of 7.5×10^4 cells per well and incubated for 30 min in a 5% CO2 incubator at 37° C. LPS stimulation was performed by addition of 100 ng/ml LPS (final concentration, Invivogen, tlrl-smlps) for 6 hrs followed by collection of cellular supernatant and the analysis of IL-1β […] and TNF cytokines levels […] via MSD technology according to manufacturers' guidelines (MSD, K15A0H).

TNF = assay: PBMC assay: TNF cytokine levels in supernatant of LPS-stimulated human PBMCs (MSD); type: cell-based; conditions: 30 min compound pre-incubation, 100 ng/ml LPS for 6 hrs
Method: Peripheral venous blood was collected from healthy individuals and human peripheral blood mononuclear cells (PBMCs) were isolated from blood by Ficoll-Histopaque (Sigma-Aldrich, A0561) density gradient centrifugation. After isolation, PBMCs were stored in liquid nitrogen for later use. Upon thawing, PBMC cell viability was determined in growth medium (RPMI media supplemented with 10% fetal bovine serum, 1% Pen-Strep and 1% L-glutamine). Compounds were spotted in a 1:3 serial dilution in DMSO and diluted to the final concentration in 30 μl medium in 96 well plates (Falcon, 353072). PBMCs were added at a density of 7.5×10^4 cells per well and incubated for 30 min in a 5% CO2 incubator at 37° C. LPS stimulation was performed by addition of 100 ng/ml LPS (final concentration, Invivogen, tlrl-smlps) for 6 hrs followed by collection of cellular supernatant and the analysis of IL-1β […] and TNF cytokines levels […] via MSD technology according to manufacturers' guidelines (MSD, K15A0H).
The IC50 values (for IL-1β) and EC50 values (TNF) were obtained on compounds of the invention/examples, and are depicted in the following table: […]

| IC50 (NLRP3) | EC50 (TNF; Homo sapiens, PBMC) | melting point | EC50 (TNF) | SMILES |
| --- | --- | --- | --- | --- |
| 0.026 µM | 7.9 µM | – | – | CC(C)c1nn(CC(=O)Nc2ccc3c(c2)[nH]c(=O)n3C)c(=O)c2sc(C3CC3)nc12 [F-15] |
| 0.023 µM | 4.99 µM | – | – | CC(C)c1nn(CC(=O)Nc2ccc3nncn3c2)c(=O)c2sc(C3CC3)nc12 [F-12] |
| 0.055 µM | 18.2 µM | 190.5 °C | – | CC(C)c1nn(CC(=O)N[C@H]2C[C@@](C)(O)C2)c(=O)c2sc(C3CC3)nc12 [F-14] |
| 0.354 µM | 15.7 µM | 203.8 °C | – | CC(C)c1nn(CC(=O)Nc2ccn3ncnc3c2)c(=O)c2sc(C3CC3)nc12 [F-38] |
| > 20 µM | > 20 µM | 172 °C | – | CC(C)c1nn(CC(=O)Nc2cc(C(F)(F)F)ncn2)c(=O)c2sc(C3CC3)nc12 [F-50] |
| 1.19 µM | > 20 µM | 282.4 °C | – | Cc1nnc2cc(NC(=O)Cn3nc(C(C)C)c4nc(C5CC5)sc4c3=O)ccn12 [F-35] |
| 0.072 µM | 15.9 µM | – | – | CC(C)c1nn(CC(=O)Nc2ccc3nccn3c2)c(=O)c2sc(C3CC3)nc12 [F-36] |
| 0.15 µM | ~17.3 µM | 248.3 °C | – | O=C(Cn1nc(C2CC2)c2nc(C3CC3)sc2c1=O)Nc1ccc2nncn2n1 [F-54] |
| 0.181 µM | 9.2 µM | 186 °C | – | CCc1nc2c(C(C)C)nn(CC(=O)Nc3ccncn3)c(=O)c2s1 [F-8, 2-(2-ethyl-4-isopropyl-7-oxo-thiazolo[4,5-d]pyridazin-6-yl)-N-pyrimidin-4-yl-acetamide] |
| 0.05 µM | 11.5 µM | – | – | CC(C)c1nc2c(C(C)C)nn(CC(=O)Nc3ccc4nncn4c3)c(=O)c2s1 [F-4] |
| 0.715 µM | ~12.6 µM | 219.9 °C | – | Cn1nc(NC(=O)Cn2nc(C3CC3)c3nc(C4CC4)sc3c2=O)ccc1=O [F-25] |
| 2.31 µM | > 20 µM | – | – | CC(C)c1nn(CC(=O)Nc2cnc3ccnn3c2)c(=O)c2sc(C3CC3)nc12 [F-44] |
| 0.089 µM | > 20 µM | – | – | CC(C)c1nn(CC(=O)Nc2ccc3nncn3c2)c(=O)c2sc(C(C)(F)F)nc12 [F-23] |
| 0.105 µM | 19.7 µM | – | – | CC(C)c1nn(CC(=O)Nc2ccncn2)c(=O)c2sc(C3CC3)nc12 [F-1, 2-(2-cyclopropyl-4-isopropyl-7-oxo-thiazolo[4,5-d]pyridazin-6-yl)-N-pyrimidin-4-yl-acetamide] |
| – | – | 299.1 °C | > 20 µM | CC(C)c1nn(CC(=O)Nc2ccn3cnnc3c2)c(=O)c2sc(C3CC3)nc12 [F-40] |
| 0.095 µM | 18 µM | 284.6 °C | – | CCc1nc2c(C(C)C)nn(CC(=O)Nc3ccc4nncn4c3)c(=O)c2s1 [F-9] |
| 0.78 µM | > 20 µM | 198.2 °C | – | C[C@]1(O)C[C@@H](NC(=O)Cn2nc(C3CC3)c3nc(C4CC4)sc3c2=O)C1 [F-27] |
| 0.11 µM | 10.8 µM | 250 °C | – | Cc1nnc2ccc(NC(=O)Cn3nc(C(C)C)c4nc(C5CC5)sc4c3=O)nn12 [F-56] |
| 0.155 µM | 12.3 µM | 215.5 °C | – | CC(C)c1nn(CC(=O)Nc2ccn3ccnc3c2)c(=O)c2sc(C3CC3)nc12 [F-29] |
| 0.1 µM | 6.59 µM | 195.2 °C | – | CC(C)c1nn(CC(=O)Nc2ccnnc2)c(=O)c2sc(C3CC3)nc12 [F-13] |
| 0.137 µM | > 20 µM | 240.9 °C | – | CC(C)c1nn(CC(=O)Nc2ccc(=O)n(C)c2)c(=O)c2sc(C3CC3)nc12 [F-46] |
| 0.069 µM | 2.16 µM | 201.7 °C | – | CC(C)c1nn(CC(=O)Nc2ccc3nccn3n2)c(=O)c2sc(C3CC3)nc12 [F-59] |
| 0.056 µM | 18.6 µM | – | – | CC(C)c1nn(CC(=O)Nc2ccc3nncn3n2)c(=O)c2sc(C(C)(F)F)nc12 [F-52, N-([1,2,4]triazolo[4,3-b]pyridazin-6-yl)-2-(2-(1,1-difluoroethyl)-4-isopropyl-7-oxothiazolo[4,5-d]pyridazin-6(7H)-yl)acetamide] |
| 0.126 µM | 10.8 µM | 285 °C | – | O=C(Cn1nc(C2CC2)c2nc(C3CC3)sc2c1=O)Nc1ccc2nncn2c1 [F-26] |
| 0.019 µM | 4.89 µM | 245.4 °C | – | CC(C)c1nn(CC(=O)Nc2ccc3nncn3n2)c(=O)c2sc(C3CC3)nc12 [F-57] |

| IC50 (NLRP3) | EC50 (TNF; Homo sapiens, PBMC) | melting point | EC50 (TNF) | SMILES |
| --- | --- | --- | --- | --- |
| 0.446 µM | 13.1 µM | 216.3 °C | – | CC(C)c1nn(CC(=O)Nc2ccc3nnc(C(F)F)n3c2)c(=O)c2sc(C3CC3)nc12 [F-39] |
| 0.169 µM | > 20 µM | – | – | CC(C)c1nc2c(N(C)C)nn(CC(=O)Nc3ccc4nncn4c3)c(=O)c2s1 [F-7] |
| 0.247 µM | > 20 µM | 147.1 °C | – | CC(C)c1nn(CC(=O)Nc2cnc3nccn3c2)c(=O)c2sc(C3CC3)nc12 [F-37] |
| 6.6 µM | > 20 µM | – | – | Cc1nnc2n1C[C@H](NC(=O)Cn1nc(C(C)C)c3nc(C4CC4)sc3c1=O)CC2 (single isomer, unassigned) [F-32] |
| 0.188 µM | > 20 µM | – | – | CC(C)c1nn(CC(=O)Nc2ccc3nc(C#N)cn3c2)c(=O)c2sc(C3CC3)nc12 [F-42] |
| 0.567 µM | > 20 µM | 151.3 °C | – | CC(C)c1nn(CC(=O)Nc2ccc3nncn3c2)c(=O)c2sc(C3COC3)nc12 [F-24] |
| 0.332 µM | > 20 µM | 261.8 °C | – | CC(C)c1nn(CC(=O)Nc2ccc3nncn3c2)c(=O)c2sc(C(F)(F)F)nc12 [F-22] |
| 0.097 µM | 6.36 µM | 195.8 °C | – | CC(C)c1nn(CC(=O)Nc2ccc3cncn3c2)c(=O)c2sc(C3CC3)nc12 [F-28] |
| 0.351 µM | 19.4 µM | 159.2 °C | – | CCc1nc2c(C(C)C)nn(CC(=O)N[C@H]3C[C@@](C)(O)C3)c(=O)c2s1 [F-11] |
| 0.692 µM | 8.26 µM | 258 °C | – | CC(C)c1nn(CC(=O)Nc2ccn3ccnc3n2)c(=O)c2sc(C3CC3)nc12 [F-34] |
| 1.24 µM | ~19.6 µM | – | – | CC(C)c1nn(CC(=O)Nc2ccn3c(F)cnc3c2)c(=O)c2sc(C3CC3)nc12 [F-47] |
| 0.316 µM | > 20 µM | – | – | CC(C)c1nn(CC(=O)Nc2cc(C#N)c3nncn3c2)c(=O)c2sc(C3CC3)nc12 [F-60, N-(8-cyano-[1,2,4]triazolo[4,3-a]pyridin-6-yl)-2-(2-cyclopropyl-4-isopropyl-7-oxothiazolo[4,5-d]pyridazin-6(7H)-yl)acetamide] |
| 0.224 µM | 19.8 µM | – | – | CC(C)c1nn(CC(=O)Nc2ccc3nc(C(F)(F)F)cn3c2)c(=O)c2sc(C3CC3)nc12 [F-58] |
| 0.286 µM | > 20 µM | – | – | CC(C)c1nn(CC(=O)Nc2ccc3nnc(Cl)n3n2)c(=O)c2sc(C3CC3)nc12 [F-51] |
| 0.237 µM | 19.6 µM | 204.6 °C | – | Cc1nc2ccc(NC(=O)Cn3nc(C(C)C)c4nc(C5CC5)sc4c3=O)cn2n1 [F-30] |
| 0.3 µM | > 20 µM | – | – | Cc1nnc2n1C[C@@H](NC(=O)Cn1nc(C(C)C)c3nc(C4CC4)sc3c1=O)CC2 (single isomer, unassigned) [F-33] |
| – | 12.5 µM | 206 °C | – | CC(C)c1nn(CC(=O)Nc2ccn3cnnc3c2)c(=O)c2sc(C3CC3)nc12 [F-17] |
| 0.081 µM | – | 233.3 °C | – | CC(C)c1nn(CC(=O)Nc2ccc(=O)n(C)n2)c(=O)c2sc(C3CC3)nc12 [F-16] |
| 0.181 µM | 7.18 µM | – | – | CC(C)c1nc2c(C(C)C)nn(CC(=O)Nc3ccnnc3)c(=O)c2s1 [F-3] |
| 0.156 µM | > 20 µM | – | – | CC(C)c1nc2c(C(C)C)nn(CC(=O)N[C@H]3C[C@@](C)(O)C3)c(=O)c2s1 [F-5] |
| 0.1 µM | > 20 µM | – | – | CC(C)c1nn(CC(=O)Nc2ccc3nncn3c2)c(=O)c2sc(C3CC3(F)F)nc12 (centres unmarked) [F-20] |
| 0.407 µM | > 20 µM | – | – | Cc1nnc2n1CC(NC(=O)Cn1nc(C(C)C)c3nc(C4CC4)sc3c1=O)CC2 (centres unmarked) [F-31] |
| 0.258 µM | > 20 µM | – | – | CC(C)c1nc2c(N(C)C)nn(CC(=O)N[C@H]3C[C@@](C)(O)C3)c(=O)c2s1 [F-6] |
| 0.105 µM | 5.59 µM | – | – | CC(C)c1nc2c(C(C)C)nn(CC(=O)Nc3ccncn3)c(=O)c2s1 [F-2] |
